Results reported in ChEMBL document CHEMBL1201862, “PubChem BioAssay data set” (2004).
The source made the active and inactive calls.

What was measured:
[1] = inhibitors of Bluetongue virus cytopathic effect, confirmation, arbovirus, BSR cells (AID 1250); assay type: functional;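 further: protection from viral cytopathic effect measured as cell viability by ATP luminescence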
[2] = test system: H9c2; experiment: cells; assay type: functional, cell-based; conditions: Rattus norvegicus, H9c2, Myocardium;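 further: confirmatory concentration-response retest of ultra-high-throughput screening hits for modulation of myocardial damage; cell death induced by hydrogen peroxide oxidative stress; compound pretreatment for 60 min then peroxide exposure for 2 h; potency is for protecting the cells against peroxide damage rather than for killing them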
[3] = Luminescence Cell-Based Dose-Confimation HTS to Identify Inhibitors of 5'UTR Stem-Loop Driven Alpha-Synuclein mRNA Translation in H4 Neuroglioblastoma Cells. [Related pubchem assays: 1827 (Project Summary), 1813 (Primary HTS)]; assay type: functional
[4] = molecular target: T1, Heat shock 70 kDa protein 1A (Homo sapiens, UniProt P0DMV8); experiment: Hsp70 inhibitors, biochemical, TR-FRET (AID 786)
[5] = molecular target: T1, Heat shock 70 kDa protein 1A; experiment: Hsp70 inhibitors, probe displacement, primary screen, biochemical, fluorescence polarization (AID 583)
[6] = molecular target: Potassium voltage-gated channel subfamily KQT member 2 (Rattus norvegicus, UniProt O88943, W236L); experiment: KCNQ2 channel potentiators, dose response, mechanism study for KCNQ2 potentiator project, cell-based, automated electrophysiology (AID 2603); assay type: functional
[7] = molecular target: T2, Replicative DNA helicase DnaB (Mycobacterium tuberculosis, UniProt P9WMR3); experiment: DnaB intein splicing inhibitors, dose response, biochemical, cell-free fluorescence (AID 449749); assay type: functional
T2 sequence (P9WMR3 whole entry): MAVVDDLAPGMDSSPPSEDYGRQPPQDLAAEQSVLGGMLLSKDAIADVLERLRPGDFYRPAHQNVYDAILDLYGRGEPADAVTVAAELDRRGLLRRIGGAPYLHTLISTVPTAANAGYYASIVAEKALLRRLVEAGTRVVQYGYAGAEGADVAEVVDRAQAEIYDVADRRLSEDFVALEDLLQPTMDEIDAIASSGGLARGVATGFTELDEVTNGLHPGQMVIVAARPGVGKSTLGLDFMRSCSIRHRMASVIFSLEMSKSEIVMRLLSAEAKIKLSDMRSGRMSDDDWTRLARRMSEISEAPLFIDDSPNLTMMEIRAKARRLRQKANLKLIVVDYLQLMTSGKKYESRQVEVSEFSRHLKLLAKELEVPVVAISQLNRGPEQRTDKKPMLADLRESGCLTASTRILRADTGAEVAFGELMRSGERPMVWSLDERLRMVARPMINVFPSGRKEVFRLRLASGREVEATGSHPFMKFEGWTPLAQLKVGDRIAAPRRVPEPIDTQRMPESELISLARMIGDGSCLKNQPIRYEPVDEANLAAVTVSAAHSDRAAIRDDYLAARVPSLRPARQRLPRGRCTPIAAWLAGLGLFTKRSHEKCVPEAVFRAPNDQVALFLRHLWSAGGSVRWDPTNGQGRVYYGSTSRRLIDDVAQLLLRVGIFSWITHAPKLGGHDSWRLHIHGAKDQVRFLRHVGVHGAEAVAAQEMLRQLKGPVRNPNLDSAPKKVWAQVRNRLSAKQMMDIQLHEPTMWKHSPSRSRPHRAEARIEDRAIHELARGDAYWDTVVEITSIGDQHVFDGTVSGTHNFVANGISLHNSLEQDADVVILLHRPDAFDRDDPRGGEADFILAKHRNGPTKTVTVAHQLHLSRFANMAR

[8] = test system: Vero; experiment: Vero cell cytotoxicity, cytotoxicity control for flavivirus capping enzyme inhibitors (AID 588742); assay type: functional; conditions: Chlorocebus sabaeus
[9] = molecular target: T3, Protein RecA (Mycobacterium tuberculosis, UniProt P9WHJ3); experiment: Fluorescence Cell-Free Homogeneous Dose Retest to Identify Inhibitors of RecA-Intein Splicing Activity. [Related pubchem assays (depositor defined):AID2097, AID2223, AID489010, AID492950]; assay type: functional
T3 sequence (P9WHJ3 whole entry): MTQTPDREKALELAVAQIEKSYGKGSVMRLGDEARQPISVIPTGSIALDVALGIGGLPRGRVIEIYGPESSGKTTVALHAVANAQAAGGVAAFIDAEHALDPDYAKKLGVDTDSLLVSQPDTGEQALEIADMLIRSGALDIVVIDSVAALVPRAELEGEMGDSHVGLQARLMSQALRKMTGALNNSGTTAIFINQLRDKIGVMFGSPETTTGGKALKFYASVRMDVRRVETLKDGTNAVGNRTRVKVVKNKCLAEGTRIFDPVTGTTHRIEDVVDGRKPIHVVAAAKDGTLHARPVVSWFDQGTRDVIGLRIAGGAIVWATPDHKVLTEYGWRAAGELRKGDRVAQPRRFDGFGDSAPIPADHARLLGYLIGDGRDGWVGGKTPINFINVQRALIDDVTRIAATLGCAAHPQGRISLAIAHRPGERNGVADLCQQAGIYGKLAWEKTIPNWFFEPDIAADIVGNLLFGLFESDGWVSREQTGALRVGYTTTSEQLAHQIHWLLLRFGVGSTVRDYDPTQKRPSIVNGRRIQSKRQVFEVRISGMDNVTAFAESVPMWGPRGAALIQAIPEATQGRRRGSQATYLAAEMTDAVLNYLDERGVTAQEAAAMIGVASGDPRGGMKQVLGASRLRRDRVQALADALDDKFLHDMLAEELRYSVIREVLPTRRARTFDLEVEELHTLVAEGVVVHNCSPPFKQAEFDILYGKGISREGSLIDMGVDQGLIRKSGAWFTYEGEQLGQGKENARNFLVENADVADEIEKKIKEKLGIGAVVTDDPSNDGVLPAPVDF

[10] = molecular target: Genome polyprotein (dengue virus type 2, UniProt P29990); experiment: Dengue-2 NS5 methyltransferase inhibitors, primary screen, biochemical, confirmation dose response (AID 588689); assay type: functional
[11] = Shn3 3'UTR reporter inhibitors, dose response, cell-based, Clone20 osteoblasts, firefly luciferase, cherry-picked (AID 624132); assay type: functional;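 further: firefly luciferase luminescence from reporter carrying the Shn3 3'UTR in osteoblasts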
[12] = HepG2 cell cytotoxicity, dose response, cytotoxicity control for Shn3 inhibitor project, CellTiter-Glo, cherry-picked (AID 624134); assay type: functional, cell-based
[13] = control 3'UTR Renilla luciferase suppression, dose response, counter-screen for Shn3 inhibitor project, cell-based, Clone20-Shn3RL, cherry-picked (AID 624133); assay type: functional
[14] = molecular target: T4, Hepatocyte nuclear factor 4-alpha (Homo sapiens, UniProt P41235); assay type: functional, cell-based;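 further: biochemical luminescence-based dose-response counterscreen measuring inhibition of HNF4 dimerization, run alongside a screen for blockers of ABHD5–perilipin-5 interaction; split luciferase complementation of HNF4 fusion proteins in cell lysate measuring dimerization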
T4 sequence (P41235 whole entry): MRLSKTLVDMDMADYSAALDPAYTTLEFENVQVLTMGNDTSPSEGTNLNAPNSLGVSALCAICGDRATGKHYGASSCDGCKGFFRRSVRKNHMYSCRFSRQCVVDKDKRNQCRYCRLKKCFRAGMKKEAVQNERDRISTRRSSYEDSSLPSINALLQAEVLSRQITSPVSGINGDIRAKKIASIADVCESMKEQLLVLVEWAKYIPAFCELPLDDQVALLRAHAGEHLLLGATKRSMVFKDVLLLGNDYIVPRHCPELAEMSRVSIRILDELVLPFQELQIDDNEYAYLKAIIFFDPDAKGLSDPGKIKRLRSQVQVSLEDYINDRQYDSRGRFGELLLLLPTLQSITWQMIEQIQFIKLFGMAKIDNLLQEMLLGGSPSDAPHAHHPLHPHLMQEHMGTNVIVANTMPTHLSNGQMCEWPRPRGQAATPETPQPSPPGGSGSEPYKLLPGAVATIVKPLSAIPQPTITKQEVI

T1 sequence (P0DMV8 whole entry): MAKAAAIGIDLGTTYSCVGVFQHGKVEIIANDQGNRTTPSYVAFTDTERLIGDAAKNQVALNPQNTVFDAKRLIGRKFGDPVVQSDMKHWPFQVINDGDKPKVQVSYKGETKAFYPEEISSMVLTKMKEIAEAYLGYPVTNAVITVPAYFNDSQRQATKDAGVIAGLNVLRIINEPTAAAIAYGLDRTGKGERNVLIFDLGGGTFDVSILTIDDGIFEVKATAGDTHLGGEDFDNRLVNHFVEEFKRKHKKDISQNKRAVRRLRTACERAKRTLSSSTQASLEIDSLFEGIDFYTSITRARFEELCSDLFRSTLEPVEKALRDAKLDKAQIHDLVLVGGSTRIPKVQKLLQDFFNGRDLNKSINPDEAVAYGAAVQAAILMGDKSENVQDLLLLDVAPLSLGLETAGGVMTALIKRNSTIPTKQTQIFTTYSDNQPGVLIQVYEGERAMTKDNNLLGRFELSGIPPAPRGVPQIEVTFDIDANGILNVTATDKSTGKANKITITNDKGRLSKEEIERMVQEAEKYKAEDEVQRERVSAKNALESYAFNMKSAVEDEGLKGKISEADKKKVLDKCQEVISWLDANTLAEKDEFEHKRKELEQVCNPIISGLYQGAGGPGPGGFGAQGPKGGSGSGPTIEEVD
Sequence of Potassium voltage-gated channel subfamily KQT member 2 (O88943 whole entry W236L): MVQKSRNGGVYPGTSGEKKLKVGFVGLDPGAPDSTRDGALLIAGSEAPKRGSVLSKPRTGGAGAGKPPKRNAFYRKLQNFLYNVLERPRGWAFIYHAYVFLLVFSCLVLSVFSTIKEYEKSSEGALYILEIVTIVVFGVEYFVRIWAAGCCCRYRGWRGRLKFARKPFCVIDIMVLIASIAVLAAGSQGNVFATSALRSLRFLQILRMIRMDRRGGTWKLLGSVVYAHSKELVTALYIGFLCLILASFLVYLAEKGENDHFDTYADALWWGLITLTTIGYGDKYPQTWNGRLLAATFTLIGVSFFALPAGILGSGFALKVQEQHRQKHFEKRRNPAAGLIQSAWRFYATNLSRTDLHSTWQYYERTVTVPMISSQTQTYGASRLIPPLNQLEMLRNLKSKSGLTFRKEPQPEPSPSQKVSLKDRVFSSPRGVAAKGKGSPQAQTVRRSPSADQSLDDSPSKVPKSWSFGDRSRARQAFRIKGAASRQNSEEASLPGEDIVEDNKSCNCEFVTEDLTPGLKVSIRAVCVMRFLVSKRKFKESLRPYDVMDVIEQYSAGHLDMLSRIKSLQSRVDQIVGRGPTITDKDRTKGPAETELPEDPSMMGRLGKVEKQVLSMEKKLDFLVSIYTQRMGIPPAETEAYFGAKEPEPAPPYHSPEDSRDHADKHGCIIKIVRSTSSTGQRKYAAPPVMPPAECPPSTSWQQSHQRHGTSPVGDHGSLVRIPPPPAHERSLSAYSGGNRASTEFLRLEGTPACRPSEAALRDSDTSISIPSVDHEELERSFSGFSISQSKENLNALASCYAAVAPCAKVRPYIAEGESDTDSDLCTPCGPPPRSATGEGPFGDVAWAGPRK
Sequence of Genome polyprotein (P29990 2492-3391 limits assumed): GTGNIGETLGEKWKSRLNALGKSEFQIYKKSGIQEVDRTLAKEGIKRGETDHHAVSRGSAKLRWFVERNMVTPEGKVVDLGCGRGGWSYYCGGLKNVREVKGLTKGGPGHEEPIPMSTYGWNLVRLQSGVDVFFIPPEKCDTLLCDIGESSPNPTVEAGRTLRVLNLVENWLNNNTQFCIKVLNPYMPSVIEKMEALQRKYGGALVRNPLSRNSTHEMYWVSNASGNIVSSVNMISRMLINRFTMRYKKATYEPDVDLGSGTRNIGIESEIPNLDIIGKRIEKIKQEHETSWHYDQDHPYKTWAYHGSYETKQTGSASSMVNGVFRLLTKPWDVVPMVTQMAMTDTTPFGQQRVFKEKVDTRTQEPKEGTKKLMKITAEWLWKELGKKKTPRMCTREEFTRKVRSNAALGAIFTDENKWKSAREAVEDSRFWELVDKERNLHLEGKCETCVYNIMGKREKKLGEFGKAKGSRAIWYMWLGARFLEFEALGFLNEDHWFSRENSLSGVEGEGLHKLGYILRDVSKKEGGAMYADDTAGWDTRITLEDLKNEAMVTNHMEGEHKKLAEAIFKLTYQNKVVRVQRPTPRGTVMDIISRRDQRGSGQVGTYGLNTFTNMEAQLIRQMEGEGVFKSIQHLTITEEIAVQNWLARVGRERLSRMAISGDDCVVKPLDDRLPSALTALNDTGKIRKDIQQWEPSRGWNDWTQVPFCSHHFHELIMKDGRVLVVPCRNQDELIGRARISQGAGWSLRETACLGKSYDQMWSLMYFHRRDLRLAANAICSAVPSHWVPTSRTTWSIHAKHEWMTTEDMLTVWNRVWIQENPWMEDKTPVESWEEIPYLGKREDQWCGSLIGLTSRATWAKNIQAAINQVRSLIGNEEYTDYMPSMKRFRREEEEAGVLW

## COc1ccc(-c2nc(NC(=O)c3ccc(OCC(=O)N4CCOCC4)c(OC)c3)sc2C)cc1
[1]
  IC50: 83.5 µM (active)
[2]
  IC50: > 79 µM (inactive)

## CN(C)c1nc(N)nc(CSc2nnnn2-c2ccc(Cl)cc2)n1
[3]
  EC50: > 100 µM (not active)

## CC(C)(C)n1nnnc1C(c1ccc2ncccc2c1)N1CCSCC1 (centres undefined)
[4]
  IC50: > 100 µM (not active)
[5]
  IC50: > 100 µM (not active)

## CSc1nnc(NC(=O)c2nc(S(=O)(=O)Cc3ccc(C)cc3)ncc2Cl)s1
[6]
  EC50: 34.9 µM (active)
[7]
  AC50: 5.31 µM (active)
[8]
  CC50: 30.9 µM (active)
[9]
  EC50: 3.26 µM (active)
[10]
  IC50: 40.5 µM (active)
[11]
  AC50: 3.18 µM (active)
[12]
  AC50: > 70 µM (inactive)
[13]
  AC50: 11.1 µM (active)
[14]
  IC50: 4.93 µM (active)
